We go through 21 compounds from BindingDB's records for doi:10.1016/j.bioorg.2015.06.006 (Hazara University, 2015).

The term IC50 denotes the midpoint of a concentration-inhibition curve.

Alpha-glucosidase MAL12, sequence (P53341 whole entry): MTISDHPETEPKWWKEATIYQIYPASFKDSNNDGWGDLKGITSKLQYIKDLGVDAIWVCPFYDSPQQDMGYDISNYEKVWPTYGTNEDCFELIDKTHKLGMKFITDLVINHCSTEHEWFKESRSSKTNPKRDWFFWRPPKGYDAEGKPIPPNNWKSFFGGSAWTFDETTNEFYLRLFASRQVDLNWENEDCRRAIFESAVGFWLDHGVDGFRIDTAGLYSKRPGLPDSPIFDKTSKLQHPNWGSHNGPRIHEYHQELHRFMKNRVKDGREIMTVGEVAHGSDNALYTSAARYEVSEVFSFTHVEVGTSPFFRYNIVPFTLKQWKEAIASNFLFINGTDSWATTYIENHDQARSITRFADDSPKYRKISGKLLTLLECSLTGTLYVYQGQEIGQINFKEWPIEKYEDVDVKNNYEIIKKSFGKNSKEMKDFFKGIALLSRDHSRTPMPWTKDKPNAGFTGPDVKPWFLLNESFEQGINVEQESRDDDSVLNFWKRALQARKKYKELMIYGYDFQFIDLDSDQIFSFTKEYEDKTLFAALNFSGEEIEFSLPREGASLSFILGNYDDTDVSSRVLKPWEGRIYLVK

This experiment concerns the target Alpha-glucosidase MAL12 (Saccharomyces cerevisiae (strain ATCC 204508 / S288c), UniProt P53341). Put plainly: Alpha-glucosidase Assay. As to conditions: pH 6.8. As to the method: Total volume of 100 µL reaction mixture contained 70 µL 50 mM phosphate buffer pH 6.8, 10 µL test compound (0.5 mM in methanol) followed by the addition of 10 µL enzyme solution (0.057 units) in the buffer. The contents were mixed, pre-incubated for 10 min at 37 °C and pre-read at 400 nm. The reaction was initiated by the addition of 10 µL of 0.5 mM substrate (p-nitrophenyl glucopyranoside). After 30 min of incubation at 37 °C, absorbance of p-nitrophenol released was measured. Acarbose was used as positive control.
The compound `C/C(=N\Nc1nc(-c2ccc(Cl)cc2)cs1)c1ccc([N+](=O)[O-])cc1Br` [(E)-2-(2-(1-(2-Bromo-4-nitrophenyl)ethylidene)hydrazinyl)-4-(4-chlorophenyl)thiazole (2)] returned an IC50 of 43.3 µM. `CC(C)(C)c1cc(/C=N/Nc2nc(-c3ccc(Cl)cc3)cs2)cc(C(C)(C)C)c1O` [(E)-2,6-Di-t-butyl-4-((2-(4-(4-Chlorophenyl)thiazole-2-yl)-hydrazono)methyl)-phenol (8)] came in with an IC50 of 18.2 µM. In the case of `COc1ccc(-c2csc(N/N=C/c3ccc(OCc4ccccc4)cc3)n2)cc1` [(E)-2-(2-(4-(Benzyloxy)benzylidene)hydrazinyl)-4-(4-methoxyphenyl)thiazole (16)] it was 99.2 µM; in that of `COc1ccc(-c2csc(N/N=C/c3ccc(OC)c(O)c3)n2)cc1` [(E)-2-Methoxy-5-((2-(4-(4-methoxyphenyl)thiazol-2-yl)-hydrazono)methyl)-phenol (20)], 176 µM; in that of `Clc1ccc(-c2csc(N/N=C/c3ccc4ccccc4c3)n2)cc1` [(E)-4-(4-Chlorophenyl)-2-(2-(naphthalene-2-yl-methylene)hydrazinyl)thiazole (6)], 175 µM. In the case of `COc1ccc(-c2csc(N/N=C/c3ccc4ccccc4c3)n2)cc1` [(E)-4-(4-Methoxyphenyl)-2-(2-(naphthalen-2-yl-methylene)-hydrazinyl)thiazole (15)], half-maximal inhibition (IC50) required 194 µM. In the case of `Clc1ccc(-c2csc(N/N=C/c3ccc(OCc4ccccc4)cc3)n2)cc1` [(E)-2-(2-(4-(Benzyloxy)benzylidene)hydrazinyl)-4-(4-chlorophenyl)thiazole (7)] it was 36.8 µM. In the case of `COc1ccc(-c2csc(N/N=C(\C)c3cccc([N+](=O)[O-])c3)n2)cc1` [(E)-4-(4-Methoxyphenyl)-2-(2-(1-(3-nitrophenyl)-ethylidene)hydrazinyl)thiazole (12)] it was 424 µM; in that of `COc1ccc(-c2csc(N/N=C/c3c4ccccc4cc4ccccc34)n2)cc1` [(E)-2-(2-(Anthracen-9-ylmethylene)hydrazinyl)-4-(4-methoxyphenyl)thiazole (13)], 192 µM.

As for `COc1ccc(-c2csc(N/N=C/c3ccc(N(C)C)cc3)n2)cc1` [(E)-4-((2-(4-(4-Methoxyphenyl)thiazol-2-yl)hydrazono)-methyl)-N,N-dimethylaniline (14)], the midpoint of inhibition, the IC50, lay at 146 µM. In turn, `O=[N+]([O-])c1cccc(/C=N/Nc2nc(-c3ccc(Cl)cc3)cs2)c1` [(E)-4-(4-Chlorophenyl)-2-(2-(3-nitrobenzylidene)hydrazinyl)-thiazole (1)] returned an IC50 of 220 µM. The compound `Clc1ccc(-c2csc(N/N=C\c3cccc(/C=N/Nc4nc(-c5ccc(Cl)cc5)cs4)c3)n2)cc1` [1-((E)-(2-(4-(4-chlorophenyl)thiazol-2-yl)hydrazono)methyl)-3-((Z)-(2-(4-(4-chlorophenyl)thiazol-2-yl)hydrazono)methyl)benzene (9)] showed an IC50 of 68.5 µM. Compound `CN(C)c1ccc(/C=N/Nc2nc(-c3ccc(Cl)cc3)cs2)cc1` [(E)-4-((2-(4-(4-Chlorophenyl)thiazol-2-yl)hydrazono)methyl)-N,N-dimethyl-aniline (5)] returned an IC50 of 205 µM.

Consider `COc1ccc(-c2csc(N/N=C/c3ccc(/C=N/Nc4ncc(-c5ccc(OC)cc5)s4)cc3)n2)cc1` [5-(4-methoxyphenyl)-2-((E)-2-(4-((E)-(2-(4-(4-methoxyphenyl)thiazol-2-yl)hydrazono)methyl)benzylidene)-hydrazinyl)thiazole (19)], for which the IC50 is 226 µM. The figure for `Clc1ccc(-c2csc(N/N=C/c3ccc(/C=N/Nc4ncc(-c5ccc(Cl)cc5)s4)cc3)n2)cc1` [5-(4-chlorophenyl)-2-((E)-2-(4-((E)-(2-(4-(4-chlorophenyl)-thiazol-2-yl)hydrazono)methyl)benzylidene)hydrazinyl)thiazole (10)] is 342 µM; for `O=[N+]([O-])c1ccccc1/C=N/Nc1nc(-c2ccc(Cl)cc2)cs1` [(E)-4-(4-Chlorophenyl)-2-(2-(2-nitrobenzylidene)hydrazinyl)-thiazole (3)] it is 239 µM; for `C/C(=N\Nc1nc(-c2ccc(Cl)cc2)cs1)c1ccc(N2CCCCC2)cc1` [(E)-4-(4-Chlorophenyl)-2-(2-(1-(4-(piperidin-1-yl)phenyl)-ethylidene)hydrazinyl)thiazole (4)] it is 388 µM. In the case of `COc1ccc(-c2csc(N/N=C\c3cccc(/C=N/Nc4nc(-c5ccc(OC)cc5)cs4)c3)n2)cc1` [1-((E)-(2-(4-(4-Methoxyphenyl)thiazol-2-yl)hydrazono)-methyl)-3-((Z)-(2-(4-(4-methoxyphenyl)thiazol-2-yl)hydrazono)-methyl)benzene (18)] it was 55.4 µM. In the case of `COc1ccc(/C=N/Nc2nc(-c3ccc(Cl)cc3)cs2)cc1O` [(E)-5-((2-(4-(4-Chlorophenyl)thiazole-2-yl)hydrazono)-methyl)-2-methoxy-phenol (11)] it was 176 µM. `COc1ccc(-c2csc(N/N=C/c3cc(C(C)(C)C)c(O)c(C(C)(C)C)c3)n2)cc1` [(E)-2,6-Di-tert-butyl-4-((2-(4-(4-Methoxyphenyl)thiazol-2-yl)hydrazono)-methyl)phenol (17)]: the midpoint of inhibition, the IC50, lay at 123 µM. The compound `COc1ccc(-c2csc(N/N=C/c3ccc(O)c(O)c3)n2)cc1` [(E)-4-((2-(4-(4-Methoxyphenyl)thiazol-2-yl)hydrazono)-methyl)benzene-1,2-diol (21)] showed an IC50 of 46.4 µM.
